In experiment [1] the test system is Rattus norvegicus. The experiment can be described thus: Tested for the inhibition of leukocyte adhesion in rat mesenteric venules in vivo at a dose of 10 mg/kg measured by intravital microscopy. It counts as functional.
Experiment [2] concerns Rattus norvegicus. The experiment can be described thus: Tested for the inhibition of leukocyte adhesion in rat mesenteric venules in vivo at a dose of 3 mg/kg measured by intravital microscopy. It counts as functional.
For experiment [3], the system named is Rattus norvegicus. The experiment can be described thus: Tested for the inhibition of leukocyte adhesion in rat mesenteric venules in vivo at a dose of 1 mg/kg measured by intravital microscopy. It counts as functional.
The species entered for experiment [4] is Oryctolagus cuniculus. Kind of experiment: Percent incidence of heart arrhythmia and Ventricular fibrillation in isolated rabbit hearts at a concentration of 1 uM. It counts as functional.
For experiment [5], the system named is HL-60. The experiment can be described thus: Tested for the inhibition of HL60 cell adhesion to recombinant P-selectin-IgG fusion protein measured by cell culture assay. It counts as functional, cell-based. As to conditions: Homo sapiens.
Experiment [6] relates to HL-60. The experiment can be described thus: Tested for the inhibition of HL60 cell adhesion to recombinant E-selectin-IgG fusion protein measured by cell culture assay. It counts as functional, cell-based. As to conditions: Homo sapiens.
The species entered for experiment [7] is Oryctolagus cuniculus. The experiment can be described thus: Percent incidence of heart arrhythmia and Ventricular fibrillation in isolated rabbit hearts at a concentration of 3 uM. It counts as functional.

Here are results for five molecules from ChEMBL document CHEMBL1152039, “PIPERIDINE CARBOXYLIC ACID DERIVATIVES AS SIALYL LEWIS X MIMETICS” (Bioorg Med Chem Lett, 1997).

By inhibition in vivo is commonly meant the drop in the measured response relative to a control, in per cent. Low values mean little suppression, high ones strong suppression. The term IC50 denotes the point on the concentration scale where inhibition reaches its midpoint.

For `CC1OC(OC2CCCCC2OC(=O)N2CCC(C(=O)O)CC2)C(O)C(O)C1O` (centres undefined), 10 mg/kg produced 81% inhibition in vivo with Rattus norvegicus [1]. The same molecule showed an inhibition in vivo at 3 mg/kg in the experiment on Rattus norvegicus [2] of 69%. Besides, the inhibition in vivo at 1 mg/kg in the experiment on Rattus norvegicus [3] stood at 64%. Besides, the Incidence in the experiment listed under Oryctolagus cuniculus [4] is 50%. For the same molecule, the IC50 in the experiment on HL-60 [5] and in the experiment on HL-60 [6] was over 5 mM each time.
For the molecule `O=C(O)C1CCN(C(=O)O[C@@H]2CCCC[C@H]2O[C@H]2O[C@@H](CO)[C@@H](O)[C@H](O)[C@H]2O)CC1`, testing at 3 mg/kg in the experiment with Rattus norvegicus [2] gave an inhibition in vivo of 56%. Further, the IC50 in the experiment with HL-60 [5] and with HL-60 [6] was over 10 mM throughout.
In the experiment on Rattus norvegicus [2], `CC1OC(OC2CCCCC2OC(=O)N2CCC(C(=O)O)(C(=O)O)CC2)C(O)C(O)C1O` (centres undefined) came in with an inhibition in vivo at 3 mg/kg of 49%. For the same molecule, in the experiment listed under Oryctolagus cuniculus [4], the Incidence came out at 50%. Besides, the IC50 in the experiment on HL-60 [5] came out at 7.5 mM; with HL-60 [6] it was 1.6 mM.
Molecule `O=C(O)C1CCN(C(=O)O[C@@H]2CCCC[C@H]2O[C@@H]2O[C@@H](CO)[C@H](O)[C@H](O)[C@H]2O)CC1` returned an inhibition in vivo at 3 mg/kg in the experiment on Rattus norvegicus [2] of 38%. For the same molecule, the IC50 in the experiment on HL-60 [5] is over 10 mM; with HL-60 [6] it was 5 mM.
`CC(=O)N[C@H]1[C@H]([C@@H](O)[C@@H](O)CO)O[C@@](O[C@@H]2[C@H](O)[C@H](O[C@H]3[C@H](O[C@@H]4O[C@@H](C)[C@@H](O)[C@H](O)[C@@H]4O)[C@H](NC(C)=O)C(O)O[C@H]3CO)O[C@@H](CO)[C@@H]2O)(C(=O)O)C[C@H]1O` (some centres undefined) had an inhibition in vivo at 10 mg/kg in the experiment on Rattus norvegicus [1] of 63%. Moreover, the inhibition in vivo at 1 mg/kg in the experiment with Rattus norvegicus [3] worked out at 57%. The molecule further returned an Incidence in the experiment filed under Oryctolagus cuniculus [7] of 50%.
